Data as given in patent publication US12570642B2, “GLP-IR modulating compounds” (Gilead Sciences, Inc., priority 2021, dated 2026).

Molecular target: GLP-1R (Homo sapiens, UniProt P43220)
Experiment: GLP-1R Activation - cAMP Assay
Assay type: cell-based
Details: cAMP increase in CHO cells stably expressing GLP-1R; each compound run on one of the two cAMP assays (Assay 1 or Assay 2, not specified)
Method in brief: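 CHO cells stably expressing GLP-1R, plated at 1,000 cells/well overnight, then equilibrated 1 h in HBSS with 20 mM Hepes and 0.1% BSA. Agonist added as 10-point dose response for 30 min at 37 °C. cAMP measured by HTRF (Cisbio Gs Dynamic kit); EC50 from sigmoidal fit.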

Sequence of GLP-1R (P43220 24-463): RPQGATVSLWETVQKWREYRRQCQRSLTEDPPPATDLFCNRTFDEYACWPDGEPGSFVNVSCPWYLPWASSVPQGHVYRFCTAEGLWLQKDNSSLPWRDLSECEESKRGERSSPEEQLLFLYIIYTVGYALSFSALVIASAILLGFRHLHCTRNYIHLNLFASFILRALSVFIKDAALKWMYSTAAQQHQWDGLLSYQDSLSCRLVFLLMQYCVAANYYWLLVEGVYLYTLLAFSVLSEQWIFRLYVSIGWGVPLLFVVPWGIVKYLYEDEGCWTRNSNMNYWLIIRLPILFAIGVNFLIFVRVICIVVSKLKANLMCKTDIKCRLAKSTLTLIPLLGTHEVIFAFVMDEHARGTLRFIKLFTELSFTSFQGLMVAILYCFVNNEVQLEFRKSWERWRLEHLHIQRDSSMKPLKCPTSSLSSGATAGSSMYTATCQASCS

Row | SMILES | EC50 [nM]
1 | COc1cc(Cl)ncc1COc1cccc(-c2cc(F)c(Cc3nc4c(F)cc(C(=O)O)cc4n3[C@@H]3COCC3(C)C)cc2F)n1 [Example 288, (S)-2-(4-(6-((6-chloro-4-methoxypyridin-3-yl)methoxy)pyridin-2-yl)-2,5-difluorobenzyl)-1-(4,4-dimethyltetrahydrofuran-3-yl)-4-fluoro-1H-benzo[d]imidazole-6-carboxylic acid] | 0.041
2 | COCCn1c(Cc2cc(F)c(-c3cccc(OCc4cnc(Cl)cc4OC)n3)cc2F)nc2c(F)cc(C(=O)O)cc21 [Example 291, 2-(4-(6-((6-chloro-4-methoxypyridin-3-yl)methoxy)pyridin-2-yl)-2,5-difluorobenzyl)-4-fluoro-1-(2-methoxyethyl)-1H-benzo[d]imidazole-6-carboxylic acid] | 0.076
3 | COCCn1c(Cc2c(F)cc(-c3cccc(OCc4ccc(C#N)cc4F)n3)c(F)c2F)nc2c(F)cc(C(=O)O)cc21 [Example 292, 2-(4-(6-((4-cyano-2-fluorobenzyl)oxy)pyridin-2-yl)-2,3,6-trifluorobenzyl)-4-fluoro-1-(2-methoxyethyl)-1H-benzo[d]imidazole-6-carboxylic acid] | 0.133
4 | CC1(C)COCC1n1c(Cc2c(F)cc(-c3cccc(OCc4ccc(C#N)cc4F)n3)c(F)c2F)nc2ccc(C(=O)O)cc21 (stereo not drawn) [Example 293, 2-(4-(6-((4-cyano-2-fluorobenzyl)oxy)pyridin-2-yl)-2,3,6-trifluorobenzyl)-1-(4,4-dimethyltetrahydrofuran-3-yl)-1H-benzo[d]imidazole-6-carboxylic acid] | 0.04
5 | COc1cc(Cl)ncc1COc1cccc(-c2cc(F)c(Cc3nc4ccc(C(=O)O)cc4n3C3COCC3(C)C)cc2F)n1 (stereo not drawn) [Example 294, 2-(4-(6-((6-chloro-4-methoxypyridin-3-yl)methoxy)pyridin-2-yl)-2,5-difluorobenzyl)-1-(4,4-dimethyltetrahydrofuran-3-yl)-1H-benzo[d]imidazole-6-carboxylic acid] | 0.021
6 | CC1(C)COCC1n1c(Cc2cc(F)c(-c3cccc(OCc4cnc(Cl)cc4F)n3)cc2F)nc2ccc(C(=O)O)cc21 (stereo not drawn) [Example 295, 2-(4-(6-((6-chloro-4-fluoropyridin-3-yl)methoxy)pyridin-2-yl)-2,5-difluorobenzyl)-1-(4,4-dimethyltetrahydrofuran-3-yl)-1H-benzo[d]imidazole-6-carboxylic acid] | 0.042
7 | CC1(C)COCC1n1c(Cc2cc(F)c(-c3cccc(OCc4ncc(Cl)cc4F)n3)cc2F)nc2ccc(C(=O)O)cc21 (stereo not drawn) [Example 296, 2-(4-(6-((5-chloro-3-fluoropyridin-2-yl)methoxy)pyridin-2-yl)-2,5-difluorobenzyl)-1-(4,4-dimethyltetrahydrofuran-3-yl)-1H-benzo[d]imidazole-6-carboxylic acid] | 0.066
8 | CC1(C)COC[C@H]1n1c(Cn2cc(F)c(-c3cccc(OCc4ccc(Cl)cc4)n3)cc2=O)nc2ccc(C(=O)O)cc21 [Example 297, (S)-2-((6-((4-chlorobenzyl)oxy)-5′-fluoro-2′-oxo-[2,4′-bipyridin]-1′(2′H)-yl)methyl)-1-(4,4-dimethyltetrahydrofuran-3-yl)-1H-benzo[d]imidazole-6-carboxylic acid] | 0.151
9 | CC1(C)COC[C@H]1n1c(Cc2ccc(-c3ccnc(OCc4ccc(C#N)cc4F)n3)cc2F)nc2c(F)cc(C(=O)O)cc21 [Example 298, (S)-2-(4-(2-((4-cyano-2-fluorobenzyl)oxy)pyrimidin-4-yl)-2-fluorobenzyl)-1-(4,4-dimethyltetrahydrofuran-3-yl)-4-fluoro-1H-benzo[d]imidazole-6-carboxylic acid] | 0.663
10 | CC1(C)COC[C@H]1n1c(Cc2cc(F)c(-c3ccc(F)c(OCc4ccc(Cl)cc4)n3)cc2F)nc2ccc(C(=O)O)cc21 [Example 299, (S)-2-(4-(6-((4-chlorobenzyl)oxy)-5-fluoropyridin-2-yl)-2,5-difluorobenzyl)-1-(4,4-dimethyltetrahydrofuran-3-yl)-1H-benzo[d]imidazole-6-carboxylic acid] | 0.342
11 | CC1(C)COC[C@H]1n1c(Cn2cc(F)c(-c3ccc(F)c(OCc4ccc(Cl)cc4)n3)cc2=O)nc2ccc(C(=O)O)cc21 [Example 300, (S)-2-((6-((4-chlorobenzyl)oxy)-5,5′-difluoro-2′-oxo-[2,4′-bipyridin]-1′(2′H)-yl)methyl)-1-(4,4-dimethyltetrahydrofuran-3-yl)-1H-benzo[d]imidazole-6-carboxylic acid] | 0.268
12 | Cc1cc(Cc2nc3ccc(C(=O)O)cc3n2[C@@H]2COCC2(C)C)c(Cl)cc1-c1ccnc(OCc2ccc(C#N)cc2)n1 [Example 301, (S)-2-(2-chloro-4-(2-((4-cyanobenzyl)oxy)pyrimidin-4-yl)-5-methylbenzyl)-1-(4,4-dimethyltetrahydrofuran-3-yl)-1H-benzo[d]imidazole-6-carboxylic acid] | 0.714
13 | COc1nnc(COc2cccc(-c3ccc(Cc4nc5c(F)cc(C(=O)O)cc5n4[C@@H]4COCC4(C)C)c(F)c3)n2)s1 [Example 309, (S)-1-(4,4-dimethyltetrahydrofuran-3-yl)-4-fluoro-2-(2-fluoro-4-(6-((5-methoxy-1,3,4-thiadiazol-2-yl)methoxy)pyridin-2-yl)benzyl)-1H-benzo[d]imidazole-6-carboxylic acid] | 0.368
14 | Cc1cc(Cc2nc3ccc(C(=O)O)cc3n2[C@@H]2COCC2(C)C)c(Cl)cc1-c1ccnc(OCc2ccc(Cl)cc2F)n1 [Example 318, (S)-2-(2-chloro-4-(2-((4-chloro-2-fluorobenzyl)oxy)pyrimidin-4-yl)-5-methylbenzyl)-1-(4,4-dimethyltetrahydrofuran-3-yl)-1H-benzo[d]imidazole-6-carboxylic acid] | 0.745
15 | Cc1cc(Cc2nc3c(F)cc(C(=O)O)cc3n2[C@@H]2COCC2(C)C)c(Cl)cc1-c1ccnc(OCc2ccc(C#N)cc2F)n1 [Example 319, (S)-2-(2-chloro-4-(2-((4-cyano-2-fluorobenzyl)oxy)pyrimidin-4-yl)-5-methylbenzyl)-1-(4,4-dimethyltetrahydrofuran-3-yl)-4-fluoro-1H-benzo[d]imidazole-6-carboxylic acid] | 0.346

Next, values leading:

Row | EC50 [nM] | SMILES
16 | 0.181 | CC1(C)COC[C@H]1n1c(Cc2c(F)cc(-c3cccc(OCc4ccc(Cl)cc4F)n3)cc2F)nc2ccc(C(=O)O)cc21 [Example 302, (S)-2-(4-(6-((4-chloro-2-fluorobenzyl)oxy)pyridin-2-yl)-2,6-difluorobenzyl)-1-(4,4-dimethyltetrahydrofuran-3-yl)-1H-benzo[d]imidazole-6-carboxylic acid]
17 | 0.17 | CC1(C)COC[C@H]1n1c(Cc2c(F)cc(-c3ccc(F)c(OCc4ccc(Cl)cc4F)n3)cc2F)nc2ccc(C(=O)O)cc21 [Example 303, (S)-2-(4-(6-((4-chloro-2-fluorobenzyl)oxy)-5-fluoropyridin-2-yl)-2,6-difluorobenzyl)-1-(4,4-dimethyltetrahydrofuran-3-yl)-1H-benzo[d]imidazole-6-carboxylic acid]
18 | 0.125 | CC1(C)COC[C@H]1n1c(Cc2c(F)cc(-c3cccc(OCc4ccc(Cl)cc4F)n3)cc2F)nc2c(F)cc(C(=O)O)cc21 [Example 305, (S)-2-(4-(6-((4-chloro-2-fluorobenzyl)oxy)pyridin-2-yl)-2,6-difluorobenzyl)-1-(4,4-dimethyltetrahydrofuran-3-yl)-4-fluoro-1H-benzo[d]imidazole-6-carboxylic acid]
19 | 0.123 | CC1(C)COC[C@H]1n1c(Cc2c(F)cc(-c3ccc(F)c(OCc4ccc(Cl)cc4F)n3)cc2F)nc2c(F)cc(C(=O)O)cc21 [Example 306, (S)-2-(4-(6-((4-chloro-2-fluorobenzyl)oxy)-5-fluoropyridin-2-yl)-2,6-difluorobenzyl)-1-(4,4-dimethyltetrahydrofuran-3-yl)-4-fluoro-1H-benzo[d]imidazole-6-carboxylic acid]
20 | 0.508 | CC1(C)COC[C@H]1n1c(Cc2c(F)cc(-c3ccc(F)c(OCc4ccc(C#N)cc4F)n3)cc2F)nc2c(F)cc(C(=O)O)cc21 [Example 307, (S)-2-(4-(6-((4-cyano-2-fluorobenzyl)oxy)-5-fluoropyridin-2-yl)-2,6-difluorobenzyl)-1-(4,4-dimethyltetrahydrofuran-3-yl)-4-fluoro-1H-benzo[d]imidazole-6-carboxylic acid]
21 | 0.18 | CC1(C)COC[C@H]1n1c(Cc2ccc(-c3ccc(F)c(OCc4ccc(C#N)cc4)n3)cc2F)nc2c(F)cc(C(=O)O)cc21 [Example 308, (S)-2-(4-(6-((4-cyanobenzyl)oxy)-5-fluoropyridin-2-yl)-2-fluorobenzyl)-1-(4,4-dimethyltetrahydrofuran-3-yl)-4-fluoro-1H-benzo[d]imidazole-6-carboxylic acid]
22 | 0.032 | CC1(C)COC[C@H]1n1c(Cc2c(F)cc(-c3ccc(F)c(OCc4ccc(Cl)cc4)n3)c(F)c2F)nc2c(F)cc(C(=O)O)cc21 [Example 310, (S)-2-(4-(6-((4-chlorobenzyl)oxy)-5-fluoropyridin-2-yl)-2,3,6-trifluorobenzyl)-1-(4,4-dimethyltetrahydrofuran-3-yl)-4-fluoro-1H-benzo[d]imidazole-6-carboxylic acid]
23 | 0.14 | CC1(C)COC[C@H]1n1c(Cc2c(F)cc(-c3ccc(F)c(OCc4ccc(C#N)cc4)n3)c(F)c2F)nc2c(F)cc(C(=O)O)cc21 [Example 316, (S)-2-(4-(6-((4-cyanobenzyl)oxy)-5-fluoropyridin-2-yl)-2,3,6-trifluorobenzyl)-1-(4,4-dimethyltetrahydrofuran-3-yl)-4-fluoro-1H-benzo[d]imidazole-6-carboxylic acid]
24 | 0.451 | Cc1cc(Cc2nc3c(F)cc(C(=O)O)cc3n2[C@@H]2COCC2(C)C)c(Cl)cc1-c1ccnc(OCc2ccc(Cl)cc2F)n1 [Example 317, (S)-2-(2-chloro-4-(2-((4-chloro-2-fluorobenzyl)oxy)pyrimidin-4-yl)-5-methylbenzyl)-1-(4,4-dimethyltetrahydrofuran-3-yl)-4-fluoro-1H-benzo[d]imidazole-6-carboxylic acid]
